Values joined by “and” are separate entries in the source; they are usually repeats but may differ in a detail not shown here. Equal values may be shown once. Active and inactive are the calls of the source.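 How the source made its calls: active means compounds giving half or more protection of infected cells from virus-caused growth loss, again on retest; inactive means the rest.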 Where a SMILES comes first, the peptide text is derived from it. The star is where a group is joined. Cbz = O=C(OCc1ccccc1)*; Boc = CC(C)(C)OC(=O)*; OBn = c1ccc(CO*)cc1
Test system: CEM cells HIV-1 protection, formazan growth assay
Assay: NCI AIDS Antiviral Assay
Conditions: for IC50: measured here: growth of uninfected CEM cells
Outline: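 Human CEM cells, uninfected and HIV-1-infected, exposed to five drug concentrations; growth measured by soluble formazan assay and scored as percent protection from infection, with protecting compounds retested.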

SMILES | EC50 [µM] | IC50 | outcome
N#CC(C#N)C1CN2CCC1CC2 (stereo unspecified) | > 200 | > 200 µM | 
NC(CSCCSCCSCC(N)C(=O)O)C(=O)O (stereo unspecified) | > 56.2 | > 56.2 µM | 
COc1cccc(/C=C/C(=O)c2ccccc2)c1O | 14.5 | 112 µM | 
COc1cc(C=C2C(=O)NC(=O)NC2=O)cc(OC)c1OC | > 427 | 257 µM | 
CCOC(=O)CNC(=O)C(CC(C)C)NC(=O)C1CCCN1C(=O)OCc1ccccc1 (stereo not drawn) (Cbz-Pro-Leu-Gly-OEt; configuration not given here) | > 562 | 37.2 µM | 
CC1=C/C(=C(/c2cccc(S(=O)(=O)O)c2)c2cc(C)c(O)c(C(=O)O)c2)C=C(C(=O)O)C1=O |  |  | inactive
Oc1ccc(-c2nc(-c3ccc(F)cc3)c(-c3ccc4ccccc4n3)[nH]2)cc1 | > 200 | 21.4 µM | 
CCOC(=O)c1ccc(N(CC(=O)O)S(=O)(=O)c2ccc(C)cc2)s1 | > 20 | > 20 µM | 
O=C1/C(=C/c2ccccc2Cl)CCc2ccccc21 | > 10 | > 10 µM | 
C(/COc1cccnc1)=N\NC1=NCCN1 | > 832 | 186 µM | 
CC1(C)OC(COP2OCCO2)[C@H](COP2OCCO2)O1 (stereo partly specified) | > 200 | > 200 µM | 
CC(O)CNC1=CC(=O)C(=O)c2ccccc21 (stereo unspecified) | > 200 | 28.8 µM | 
OC1CCC(COC(c2ccccc2)(c2ccccc2)c2ccccc2)O1 (stereo unspecified) | > 200 | 24.5 µM | 
N#CC(NNC(=O)Cc1ccccc1)c1ccc(O)cc1 (stereo unspecified) | > 891 | 245 µM | 
Cc1cc2c(cc1Cl)S(=O)(=O)OC(c1ccc([N+](=O)[O-])cc1)=N2 | > 200 | 115 µM | 
CC1Cc2c([nH]c3ccccc3c2=O)O1 (stereo unspecified) | > 1230 | 724 µM | 
S=C(N/N=C\C=N/NC(=S)N1CCCCCC1)N1CCCCCC1 | > 100 | 14.1 µM | 
CCC1NC2CC3(C(=O)N(OC)c4ccccc43)C3CC1C2CO3 (stereo unspecified) | > 269 | > 269 µM | 
Cc1ccc(Nc2nc(C)c(C(=O)C/C(=N/NC(N)=S)C(=O)Nc3cc(Cl)cc(Cl)c3)s2)cc1 | > 200 | 178 µM | 
COc1ccc(C(CC(C)=O)c2c(O)c3ccccc3oc2=O)cc1OC (stereo unspecified) | > 200 | > 200 µM | 
c1ccc(-c2cc(-c3cc(-c4ccccc4)n[nH]3)[nH]n2)cc1 | > 200 | > 200 µM | 

SMILES | EC50 [µM] | IC50 | outcome
CCOC(=O)/C(=C/c1ccc(Br)cc1)C(=O)c1ccccc1 | > 10.5 | > 10.5 µM | 
CCCCn1c(N)c(N=O)c(=O)n(CCCC)c1=O | > 200 | 89.1 µM | 
CCOC(=O)C(=[N+]=[N-])C(=O)CSC#N | > 200 | 10.5 µM | 
CC(=O)SCC1OC(n2cc(C)c(=O)[nH]c2=O)C/C1=N\O (stereo unspecified) | > 200 | > 200 µM | 
O=C1O[C@@H](c2ccccc2)C[C@@H]1CN1CCOCC1 |  |  | inactive
CC1=NN(c2ccccc2)C(=O)CC1 | > 1320 | > 1320 µM | 
CC(=O)Nc1ccc(C(=O)NN2C(=O)C(Cl)C2c2cc(Br)cc(Br)c2O)cc1 (stereo unspecified) |  |  | inactive
CC(=O)Oc1ccccc1C(=O)Nc1ccc(S(=O)(=O)c2ccc(NC(=O)c3ccccc3OC(C)=O)cc2)cc1 | > 200 | > 200 µM | 
COP(=O)(OC)C1=c2c(C)noc2=C2C=COC2C1=O (stereo unspecified) | > 200 | > 200 µM | 
COC(=O)C1=CON2C3CC4CC(C3)CC(C4)C12C (stereo unspecified) | > 200 | 135 µM | 
C/C(=N\NC(N)=S)c1ccc(/C(C)=N/NC(N)=S)cc1 |  |  | inactive
N#C/C(=C/n1c(=S)[nH]c2ccc([N+](=O)[O-])cc21)C(N)=O | > 200 | > 200 µM | 
CCCCCCCCS(=O)(=O)c1ccc(O)c(C(=O)Nc2ccc(C(F)(F)F)cc2)c1 | > 40.7 | 1.58 µM | 
O=C(/N=C(\c1ccc(F)cc1)c1ccsc1-n1cccc1)Nc1ccccc1 | > 200 | 4.9 µM | 
Cc1n[nH]c2ccccc2c1=O | > 676 | 490 µM | 
c1ccc2nn(C3CCCO3)nc2c1 (stereo unspecified) | > 200 | > 200 µM | 
O=C1c2cccc3c([N+](=O)[O-])ccc(c23)C(=O)N1NCCO |  |  | inactive
O=C(c1ccccc1)N1OC12CCCCC2 | > 200 | 51.3 µM | 
CC1(C)C2(C(N)=O)C(=O)NC(=O)C12C(=O)O (stereo unspecified) | > 200 | > 200 µM | 
O=C(CC1=Nc2nnc(CCCCCCCc3nnc4n3C(=O)C(CC(=O)c3ccc5ccccc5c3)=N4)n2C1=O)c1ccc2ccccc2c1 | > 4.07 | > 4.07 µM | 
CCCSS[C@H]1NC(=O)[C@H]1NC(=O)COc1ccccc1 | > 21.9 | > 21.9 µM | 

SMILES | EC50 [µM] | IC50 | outcome
CC1=C(C)SC(=C2Sc3c(n(C)c(=O)n(C)c3=O)S2)S1 | 182 | > 200 µM | 
COC(Cc1cc(C(O)(c2ccc(C(C)(C)C)cc2)c2cc(CC(OC)(c3cc(C(OC)(c4ccc(C(C)(C)C)cc4)c4ccc(C(C)(C)C)cc4)c(C)cc3C)c3cc(C(OC)(c4ccc(C(C)(C)C)cc4)c4ccc(C(C)(C)C)cc4)c(C)cc3C)c(C)cc2C)c(C)cc1C)(c1cc(C(OC)(c2ccc(C(C)(C)C)cc2)c2ccc(C(C)(C)C)cc2)c(C)cc1C)c1cc(C(OC)(c2ccc(C(C)(C)C)cc2)c2ccc(C(C)(C)C)cc2)c(C)cc1C |  |  | inactive
CCOC(=O)C(=O)Nc1nc2c(s1)C(=O)c1ccccc1C2=O |  |  | inactive
CNC(C)(C)C(SSSC(c1ccc(Cl)cc1)C(C)(C)NC)c1ccc(Cl)cc1 (stereo unspecified) | > 200 | 3.55 µM | 
Clc1ccc2nc3occ(Br)c3cc2c1 | > 13.2 | > 13.2 µM | 
CCCc1cc(-c2ccc(N=Nc3cc(S(=O)(=O)O)c4ccccc4c3N)c(CCC)c2)ccc1N=Nc1cc(S(=O)(=O)O)c2ccccc2c1N | 105 | 182 µM | 
O=[P+](O)c1ccccn1 |  |  | inactive
CCCc1cc(=O)oc2c3c(cc(OC(C)COC)c12)O[C@H](C)[C@@H](C)[C@@H]3O (stereo partly specified) | 4.68 | 29.5 µM | 
CSC1SCC2C(=O)N(C)C3(CC3C)C(=O)OCC(NC(=O)c3nc4ccccc4cc3O)C(=O)NC(C)C(=O)N(C)C1C(=O)N(C)C1(CC1C)C(=O)OCC(NC(=O)c1nc3ccccc3cc1O)C(=O)NC(C)C(=O)N2C (stereo unspecified) | > 8.32 | 0.00263 µM | 
O=[N+]([O-])c1ccc(-[n+]2ccc3ccccc3c2)c([N+](=O)[O-])c1 | > 759 | 4.79 µM | 
CCOC(=O)c1nc2ccc(C(F)(F)F)cc2nc1Nc1ccc(Cl)c(Cl)c1 |  |  | inactive
Brc1ccc2c(C3CN[C@@H](c4c[nH]c5cc(Br)ccc45)CN3)c[nH]c2c1 (stereo partly specified) | > 100 | 4.57 µM | 
CCCCOC(=O)C(=O)/C(=C\n1c(=S)[nH]c2cc(C)ccc21)C(=O)C=C(C)C | > 200 | > 200 µM | 
CN1CCN(C(=S)N(C)C(=O)c2ccc(Cl)cc2)CC1 | > 794 | 389 µM | 
CC(C)CC(NC(=O)OC(C)(C)C)C(=O)NC(CCC(=O)OCc1ccccc1)C(N)=O (stereo not drawn) (Boc-Leu-Glu(OBn)-NH2; configuration not given here) | > 200 | 191 µM | 
Cc1ccccc1NC(=O)C(=O)C1CN(c2ccccc2)N=C1N (stereo unspecified) | > 209 | > 209 µM | 
CCOC(=O)/C(C[C@H]1OC(C)(C)O[C@@H]1[C@H]1COC(C)(C)O1)=N/O | > 200 | > 200 µM | 
CC1(C)OC(=S)N(c2ccccc2)C12C=Cc1ccccc1O2 (stereo unspecified) | > 200 | 35.5 µM | 
N#Cc1cc(Sc2ccc(N)c(C#N)c2)ccc1N | > 200 | 11 µM | 
Cc1nc(-n2nc(-c3ccccc3)cc2-c2ccccc2)sc1C(/C=C/c1ccc([N+](=O)[O-])cc1)=N/NC(N)=S | > 33.1 | 26.9 µM | 
O=C1NN=C2CCCCCCC12Cl (stereo unspecified) | > 1050 | 158 µM | 

SMILES | EC50 [µM] | IC50 | outcome
C=C1CCC2C(C)(CO)C(O)CCC2(C)C1CC(O)C1=CCOC1=O (stereo unspecified) |  |  | inactive
COC(=O)NC[C@@H]1OCc2cc3c(cc2[C@]12CC=CCC2)OCO3 | > 107 | 6.92 µM | 
N#C/C(=C\c1cc(O)c(O)c([N+](=O)[O-])c1)C(=O)NCCCNC(=O)/C(C#N)=C/c1cc(O)c(O)c([N+](=O)[O-])c1 | > 200 | 72.4 µM | 
Cn1c(=O)c2nc(N3CCCCC3)cnc2n(C)c1=O | > 200 | > 200 µM | 
CC(=O)OCc1cc(OC(C)=O)c2cc3c(OC(C)=O)cccc3c(OC(C)=O)c2c1 | > 200 | 28.2 µM | 
CCOC(=O)C(NC(=O)NC(C(=O)OCC)C(=O)OCC)C(=O)OCC | > 200 | > 200 µM | 
CCO[C@]12C[C@H](OC)[C@@]3(O)CC(C1[C@H]3OCc1ccccc1)C13C4C2[C@H](OC)C1[C@](COC)(CN4CC)[C@H](O)C[C@@H]3OC (stereo partly specified) | 17 | 117 µM | 
Nc1nc2ncn(O)c2c(=O)[nH]1 | > 112 | 0.347 µM | 
CCn1c(SCC(=O)NNC(=S)Nc2ccc([N+](=O)[O-])cc2)nc2ccccc2c1=O | > 200 | 83.2 µM | 
O=C1/C(=C\c2cccc(Oc3ccccc3)c2)SC(c2ccccc2)N1c1ccc(Cl)cc1 (stereo unspecified) | > 20 | 1.29 µM | 
N#C/C(=C\c1c(Cl)cccc1Cl)c1ccccc1 | > 50.1 | 28.8 µM | 
NC(CSCCSCC(N)C(=O)O)C(=O)O (stereo unspecified) | > 10 | > 10 µM | 
Cc1ccc(NC(=O)CCC/C(CC(=O)c2ccc(Br)cc2)=N/NC(=O)CC#N)cc1 | > 102 | > 102 µM | 
COc1ccc(C(=O)c2ccc(OC)c(S(=O)(=O)OC)c2)cc1S(=O)(=O)OC | > 43.7 | > 43.7 µM | 
Cc1nc2c(Br)cc(Br)cc2c(=O)n1-c1ccccc1NC1OC(CO)C(O)C(O)C1O (stereo unspecified) | > 200 | > 200 µM and 105 µM | 
N=S(=O)(c1ccccc1)c1ccccc1[N+](=O)[O-] (stereo unspecified) | 53.7 | 91.2 µM | 
N#C/C(=C1\SC(N=Nc2ccccc2)C(=O)N1c1ccccc1)c1nc2ccccc2[nH]1 (stereo unspecified) | > 6.03 | > 6.03 µM | 
O=P1(N2CCCCC2)OCC2(CO1)COP(=O)(N1CCCCC1)OC2 (stereo unspecified) | > 200 | > 200 µM | 
CCCCCC[n+]1noc(N)c1-c1ccc(-c2c(N)on[n+]2CCCCCC)cc1 | > 200 | 2.57 µM | 
Brc1ccc(N=Nc2ccc3ccccc3n2)cc1 | > 93.3 | 91.2 µM | 
